In US11819510B2, “Food composition for ameliorating cerebrovascular diseases containing 2′- fucosyllactose and pharmaceutical composition for preventing or treating cerebrovascular diseases containing 2′-fucosyllactose” (Advanced Protein Technologies Corp., priority 2020, dated 2023):

Tests used:
[1] = test system: carotid artery thrombosis; assay: FeCl3-induced carotid artery thrombosis mouse model, blood flow measurement; assay type: in vivo; conditions: 7 days, FeCl3 (10%) mouse model, vehicle 7.47 minutes
Method: Male C57BL/6 mice (6-8 weeks old) used in the experiment were purchased from Dooyeol Biotech Co., Ltd., were acclimatized for a predetermined period at 23±1° C. and 56% relative humidity while a general diet was provided thereto for 1 week, and were then used for the experiment. In the following, animal experiments were performed in accordance with the guide for the animal study protocols approved by the Korea Institute of Oriental Medicine Institutional Animal Care and Use Committee (approval number: 20-058). FeCl3 (10%) was used to establish a thrombosis-induced mouse model. Mice were orally administered with 2′-fucosyllactose (500, 1,000 mg/kg BW), 3-fucosyllactose (1,000 mg/kg BW), or ASA (100 mg/kg BW) for 7 days. 2 hours after the last administration, the mice were anesthetized with 2% isoflurane, the left carotid artery was isolated from each mouse, and filter paper (2 mm in diameter) soaked with FeCl3 (10%) was placed on the carotid artery for 2 minutes to induce thrombosis. Blood flow was measured using a blood flow meter (AD meter).

[2] = test system: CRP-induced aggregation of mouse platelets; assay: Platelet aggregation induced by CRP; assay type: cell-based; conditions: CRP 0.15 μg/ml; 2′-fucosyllactose 300 to 1,000 μM, FOS and 3-fucosyllactose 1,000 μM; pretreated 37° C. 15 minutes; vs vehicle; FIG. 2A
[3] = test system: collagen-induced aggregation of mouse platelets; assay: Platelet aggregation induced by collagen; assay type: cell-based; conditions: collagen 0.5 μg/ml; 2′-fucosyllactose 300 to 1,000 μM, FOS and 3-fucosyllactose 1,000 μM; pretreated 37° C. 15 minutes; vs vehicle; FIG. 2B
[4] = test system: thrombin-induced aggregation of mouse platelets; assay: Platelet aggregation induced by thrombin; assay type: cell-based; conditions: thrombin 0.025 U/ml; pretreated 37° C. 15 minutes; vs vehicle; FIG. 2C
Method: (§1) Platelets were collected from the abdominal vein of mice (6-8 weeks of age) using a syringe pretreated with a citrate-dextrose solution (ACD, Sigma). After centrifugation at 300×g at room temperature for 20 minutes to obtain platelet-rich plasma (PRP), 0.5 μM PGE1 was added to the plasma isolated from red blood cells, followed by re-centrifugation at 700×g for 4 minutes. The precipitated platelets were washed with HEPES-Tyrode buffer (5 mM HEPES/NaOH, pH 7.3, 5 mM glucose, 136 mM NaCl, 12 mM NaHCO3, 2.7 mM KCl) containing 10% ACD, followed by centrifugation at 700×g for 5 min. The precipitated platelets were adjusted to a concentration of 3×10^8 cells/mL in HEPES-Tyrode buffer and used in this experiment.
(§2) Mouse platelets immersed in HEPES-Tyrode buffer at a concentration of 3×10^8 cells/mL were pre-treated with a vehicle (distilled water), 1,000 μM FOS, 3′-fucosyllactose, and various concentrations (300 to 1,000 μM) of 2′-fucosyllactose at 37° C. for 15 minutes, and were then activated awith CRP, collagen, thrombin, and thromboxane A2 analogues in a platelet aggregation system. Platelet aggregation was induced at a rate of 1,000 rpm at 37° C. and then measured in a platelet aggregation meter (Chrono-log Corp, Havertown, PA). […]

[5] = test system: thromboxane A2 analogue-induced aggregation of mouse platelets; assay: Platelet aggregation induced by thromboxane A2 analogue (U46619); assay type: cell-based; conditions: thromboxane A2 analogue 3 μM; pretreated 37° C. 15 minutes; vs vehicle; FIG. 2D
Method: as §1, §2

[6] = test system: P-selectin of mouse platelet α-granule; assay: Flow cytometry of platelet P-selectin exposure after CRP activation; assay type: cell-based; conditions: 300 to 1,000 μM, concentration-dependent; 0.15 μg/ml CRP 5 minutes; vs vehicle; FIG. 3A
Method: as §1
(§3) The activity of each of platelet P-selectin and αIIbβ3, which are known biomarkers of platelet activity, was measured using a flow cytometer (Gallios, Beckman Coulter). Mouse platelets were pretreated with a vehicle (distilled water), 1,000 μM FOS and 3-fucosyllactose, and various concentrations (300 to 1,000 μM) of 2′-fucosyllactose at 37° C. for 15 minutes, and were then activated with 0.15 ug/ml CRP at 37° C. for 5 minutes, after which the activity thereof was measured using P-selectin and αIIbβ3 antibodies.
(§4) The mechanism of inhibition of platelet activation by HMOs was determined. […]

platelet αIIbβ3 integrin = assay: Flow cytometry of platelet αIIbβ3 integrin activation after CRP activation; assay type: cell-based, mouse; conditions: 300 to 1,000 μM, concentration-dependent; 0.15 μg/ml CRP 5 minutes; vs vehicle; FIG. 3B
Method: as §1, §3, §4

HepG2 cells = assay: HMO cytotoxicity test (CCK assay); assay type: cell-based; conditions: 24 hours treatment, FIG. 4
Method: In this experimental example, the cytotoxicity of HMOs was evaluated by CCK assay (Oh, Y. C.; Jeong, Y. H.; Pak, M. E.; Go, Y., Banhasasim-Tang Attenuates Lipopolysaccharide-Induced Cognitive Impairment by Suppressing Neuroinflammation in Mice. Nutrients 2020, 12, (7)). No protocol for measuring cytotoxicity to platelets has been established, so HepG2 cells were pretreated with an HMO (2′-fucosyllactose or 3-fucosyllactose) in a concentration-dependent manner. After 24 hours, each well was treated with a cell-counting kit solution (Dojindo Molecular Technologies, Inc.), and further incubated for 1 hour, and then absorbance was measured at a wavelength of 450 nm using a microplate reader.

CC(=O)Oc1ccccc1C(=O)O [aspirin, reference compound]
carotid artery occlusion time ([1]; 100 mg/kg BW oral, positive control): 18.05 min

fructooligosaccharide [FOS]
inhibition of platelet aggregation induced by CRP [2]: not significantly inhibited | inhibition of platelet aggregation induced by collagen [3]: not significantly inhibited

2′-fucosyllactose
inhibition of platelet aggregation induced by CRP [2]: significantly inhibited | inhibition of platelet aggregation induced by collagen [3]: significantly inhibited | inhibition of platelet aggregation induced by thrombin [4]: did not exhibit an inhibitory effect | inhibition of platelet aggregation induced by thromboxane A2 analogue [5]: did not exhibit an inhibitory effect | inhibition of activation of P-selectin of mouse platelet α-granule [6]: significantly inhibit | inhibition of activation of platelet αIIbβ3 integrin (platelet αIIbβ3 integrin): significantly inhibit | cell death of HepG2 (cell viability, CCK assay) (HepG2 cells): not observed | average carotid artery occlusion time ([1]; 500 mg/kg BW oral): 11.79 min | average carotid artery occlusion time ([1]; 1,000 mg/kg BW oral): 14.52 min

3-fucosyllactose [reference compound]
inhibition of platelet aggregation induced by CRP [2]: not significantly inhibited | inhibition of platelet aggregation induced by collagen [3]: not significantly inhibited | cell death of HepG2 (cell viability, CCK assay) (HepG2 cells): not observed | average carotid artery occlusion time ([1]; 1,000 mg/kg BW oral): 8.18 min
